Laboratory results reported in article PMC6792352, “Limited Chemical Structural Diversity Found to Modulate Thyroid Hormone Receptor in the Tox21 Chemical Library” (Environmental Health Perspectives, 2019).
Where two headings read alike, the source gives them in different places.

Columns and labels:
[1] = molecular target: T1, human TRβ ligand-binding domain (Homo sapiens, UniProt P10828); test: TRb-bla agonist mammalian one-hybrid beta-lactamase assay (TOX21_TRB_BLA_Agonist_Followup_ratio, aeid 2236); assay type: cell-based; design: host or cells: GeneBLAzer UAS-bla HEK 293T; conditions: for TRb-bla hitc: hit call from tcpl; for Emax: read-out: EMax (% of Control) trb-bla-agonist-followup-1
T1 sequence (P10828 217-461 limits assumed): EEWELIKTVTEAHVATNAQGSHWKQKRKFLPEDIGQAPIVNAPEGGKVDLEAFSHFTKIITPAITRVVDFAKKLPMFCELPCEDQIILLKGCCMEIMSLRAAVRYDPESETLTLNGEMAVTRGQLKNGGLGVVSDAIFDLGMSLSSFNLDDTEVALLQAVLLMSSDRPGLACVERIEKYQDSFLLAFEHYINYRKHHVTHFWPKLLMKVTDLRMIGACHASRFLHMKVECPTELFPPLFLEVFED

[2] = system: thyroid hormone receptor (endogenous TRα and TRβ); test: GH3-TRE-Ag-Followup confirmation (TOX21_TR_LUC_GH3_Agonist_Followup, aeid 2226); assay type: cell-based, rat; conditions: for AC50: read-out: GH3-TRE-Ag-Followup AC50; for GH3-TRE-Ag-Followup hitc: hit call from tcpl
[3] = molecular target: T2, TRα ligand-binding domain (Homo sapiens, UniProt P10827); test: TRa-coa LanthaScreen TR-FRET coactivator (SRC-2 peptide) recruitment, agonist (TOX21_TRA_COA_Agonist_Followup_ratio, aeid 2230); assay type: biochemical; conditions: for TRa-coa hitc: hit call from tcpl; for Emax: read-out: EMax (% of Control) tra-coa-agonist-followup-1
T2 construct: the receptor LBDs expressed as glutathione S-transferase (GST) fusion proteins; purchased
T2 sequence (P10827 163-410 isoform P10827-2 limits assumed, other chains not shown): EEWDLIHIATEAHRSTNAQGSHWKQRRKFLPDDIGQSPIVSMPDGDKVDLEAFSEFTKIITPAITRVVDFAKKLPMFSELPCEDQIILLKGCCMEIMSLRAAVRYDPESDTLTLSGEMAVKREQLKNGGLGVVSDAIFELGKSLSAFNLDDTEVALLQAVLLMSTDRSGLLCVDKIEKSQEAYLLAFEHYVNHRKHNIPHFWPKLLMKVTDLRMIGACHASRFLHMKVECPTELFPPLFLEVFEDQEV

[4] = system: Tox21 cell viability assays (different cell types); test: Global cytotoxicity: eighteen Tox21 cell viability assays; assay type: cell-based
[5] = as above; assay type: cell-based; conditions: read-out: Global cytotoxicity AC50 median
[6] = system: thyroid hormone receptor (TR); test: Classification of TR actives across characterization assays (TR-Ag / RXR-Ag; TR model binary); design: key to Categorization Code: FP, false positive; conditions: for Categorization Code: TR agonist characterization; for Classification: TR-Ag = TR agonist, RXR-Ag = RXR agonist
Procedure, shortened: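 GH3-TRE qHTS agonist, antagonist and viability modes over 8,305 compounds; 84 candidates rescreened in GH3-TRE-Ag, TRβ- and RXRα-UAS-bla HEK 293T one-hybrid assays, HEK293T viability, and TRα/TRβ coactivator recruitment. Actives classified binary after removing pharmaceuticals.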

[7] = system: thyroid hormone receptor (endogenous TRα and TRβ); test: GH3-TRE-Ag primary qHTS, luciferase reporter, agonist mode (TOX21_TR_LUC_GH3_Agonist, aeid 803); assay type: cell-based, rat; conditions: for GH3-TRE-Ag AC50 hitc: hit call from tcpl; for AC50: read-out: GH3-TRE-Ag AC50
[8] = GH3-TRE-Via cell viability, CellTiter-Fluor (TOX21_TR_LUC_GH3_Antagonist_viability, aeid 805); conditions: rat
[9] = molecular target: T1, human TRβ ligand-binding domain; test: TRb-coa LanthaScreen TR-FRET coactivator (SRC-2 peptide) recruitment, agonist (TOX21_TRB_COA_Agonist_Followup_ratio, aeid 2244); assay type: biochemical; design: host or cells: GeneBLAzer UAS-bla HEK 293T; conditions: for TRb-coa hitc: hit call from tcpl; for Emax: read-out: EMax (% of Control) trb-coa-agonist-followup-1
GH3-TRE-Luc cell line [10] = conditions: for TR_LUC_GH3_Antagonist_viability hitc: rat, 24 h
human RXRα = molecular target: T3, human RXRα (Homo sapiens, UniProt P19793); test: RXRa-bla-Ag mammalian one-hybrid beta-lactamase assay (TOX21_TR_RXR_BLA_Agonist_Followup_ratio, aeid 2253); assay type: cell-based
T3 construct: host or cells: GeneBLAzer UAS-bla HEK 293T
T3 sequence (P19793 227-458 limits assumed): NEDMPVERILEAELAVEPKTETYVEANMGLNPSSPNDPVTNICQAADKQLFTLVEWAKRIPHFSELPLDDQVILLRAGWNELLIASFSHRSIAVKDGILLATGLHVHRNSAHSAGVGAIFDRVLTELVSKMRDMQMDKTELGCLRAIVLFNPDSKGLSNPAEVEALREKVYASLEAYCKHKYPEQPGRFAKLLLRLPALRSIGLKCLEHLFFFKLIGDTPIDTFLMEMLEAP

[11] = system: thyroid hormone receptor (endogenous TRα and TRβ); test: cells; design: species or system GH3-TRE-Luc (rat pituitary); GH3-TRE-Luc luciferase reporter transactivation, agonist mode, qHTS; RXR ligands can also activate indirectly; conditions: 24 h, read-out: TR_LUC_GH3_Agonist_AC50 (uM)
GH3-TRE-Luc cell line [12] = test: GH3-TRE-Via cell viability, CellTiter-Fluor (TOX21_TR_LUC_GH3_Antagonist_viability, aeid 805)
[13] = system: thyroid hormone receptor (endogenous TRα and TRβ); test: GH3-TRE-Antag primary qHTS, luciferase reporter, antagonist mode with 1 nM T3 (TOX21_TR_LUC_GH3_Antagonist, aeid 804); assay type: cell-based, rat; conditions: antagonist mode, 1 nM T3; read-out: GH3-TRE-Antag AC50
in vitro = conditions: rat, gh3-tre-luc cells, AC50 (uM) modified / 1000
[14] = HEK 293T one-hybrid, agonist mode, read-out: TRb-bla-Ag AC50
[15] = cell-free coactivator recruitment, read-out: TRa-coa-Ag AC50
[16] = median over Tox21 viability assays
[17] = median over 18 Tox21 cell viability assays (Judson et al. 2016, invitrodb_v2)
[18] = cell-free coactivator recruitment, read-out: TRb-coa-Ag AC50
[19] = median over 18 Tox21 cell viability assays, inactive set to 1,000
[20] = antagonist candidates, inactive samples arbitrarily set to AC50=1,000 μM

| Structure (SMILES) | TRb-bla hitc ([1]; agonist) | Emax [1] [%] | EMax (% of Control) gh3-tre-agonist-followup-1_agonist [2] | AC50 ([2]; confirmation, agonist mode) [µM] | GH3-TRE-Ag-Followup hitc [2] | AC50 [3, 15] [µM] | TRa-coa hitc ([3]; agonist) | Emax [3] [%] | GLOBAL CYTOTOXICITY cytotox.number_Active [4] | GLOBAL CYTOTOXICITY cytotox.median [4, 16] | AC50 [5, 17] [µM] | Categorization Code [6] | Classification [6] | EMax (% of Control) gh3-tre-agonist [7] | GH3-TRE-Ag AC50 hitc [7] | AC50 at 24 h [8] [µM] | AC50 [9, 18] [µM] | TRb-coa hitc ([9]; agonist) | Emax [9] [%] | TR_LUC_GH3_Antagonist_viability hitc (GH3-TRE-Luc cell line [10]) | further results |
| --- | --- | --- | --- | --- | --- | --- | --- | --- | --- | --- | --- | --- | --- | --- | --- | --- | --- | --- | --- | --- | --- |
| CC1=C(/C=C/C(C)=C\C=C\C(C)=C\C(=O)O)C(C)(C)CCC1 [9-cis Retinoic acid, reference compound] | 0 | 5.7 | 76.0 % of Control | 2.07 | 1 | > 92 | 0 | -0.13 | 0 | >92 | > 92 | RXR-Ag | RXR-Ag | 31.8 % of Control | 1 | > 92 | > 92 | 0 | -0.274 | 0 | AC50 [1, 14]: > 92 µM |
| CC1=C(/C=C/C(C)=C/C=C/C(C)=C/C(=O)O)C(C)(C)CCC1 [all trans-Retinoic acid, reference compound] | 1 | 31.1 | 97.2 % of Control | 1.16 | 1 | > 92 | 0 | -0.347 | 0 | >92 | > 92 | RXR-Ag | RXR-Ag | 29.3 % of Control | 1 | 66.7 | > 92 | 0 | 0 | 1 | AC50 ([7]; primary qHTS, agonist mode, 24 h, top concentration 92 μM): 0.234 µM |
| CC1=C(/C=C/C(C)=C/C=C/C(C)=C\C(=O)O)C(C)(C)CCC1 [13-cis Retinoic acid, reference compound] | 0 | 6.8 | 46.3 % of Control | 0.0348 | 1 | > 92 | 0 | -0.319 | 5 |  | 46.3 | RXR-Ag | RXR-Ag | 29.3 % of Control | 1 | 81.3 | > 92 | 0 | -0.0945 | 1 | activity in TRβ-bla as agonist [1]: not active; AC50 [1, 14]: > 92 µM; GLOBAL CYTOTOXICITY cytotox.median [4]: 46.3; activity in GH3-TRE agonist assay [7]: partial agonist; EMax in GH3-TRE-Ag assay ([7]; percent of positive control T3): 24 % of control; activity in TRb-coa biochemical assay [9]: not active |
| CNC(=O)ON=C(CSC)C(C)(C)C [Thiofanox] | 0 | 31.7 | 9.5 % of Control |  | 0 |  | 0 | -0.2 |  | >92 |  | FP |  | 22.7 % of Control | 1 |  |  | 0 | -0.165 |  | AC50 ([1]; agonist, read-out: TRb-bla AC50): > 92 µM; AC50 [2]: > 92 µM; AC50 ([3]; agonist, read-out: TRa-coa AC50): > 92 µM; tr-followup-rxr-bla-agonist-1 hitc (human RXRα; hit call from tcpl): 0; Emax (human RXRα; read-out: EMax (% of Control) tr-followup-rxr-bla-agonist-1): 3%; AC50 (human RXRα; read-out: tr-followup-rxr-bla-agonist-1 AC50): > 92 µM; GLOBAL CYTOTOXICITY cytotox.number_Active ([4]; # active of 18 total Tox21 viability assays): 0; AC50 [11]: 21 µM; AC50 (GH3-TRE-Luc cell line [12]; Rattus norvegicus, read-out: TR_LUC_GH3_Antagonist_viability AC50 (uM)): > 92 µM; TR_LUC_GH3_Antagonist_viability hitc (GH3-TRE-Luc cell line [12]; hit call from tcpl): 0; AC50 ([9]; agonist, read-out: TRb-coa AC50): > 92 µM |
| Cc1ccc2c(Cl)cc(Cl)c(O)c2n1 [5,7-Dichloro-8-hydroxy-2-methylquinoline] |  |  |  |  |  |  |  |  |  |  |  |  |  |  |  | 1.56 |  |  |  |  | Active in global cytotoxicity assays (%) ([4]; percentage of 18 Tox21 viability assays with hitc=1): 13.6%; AC50 [5, 19]: 13.6 µM; AC50 [7, 20]: > 92 µM; AC50 [13]: 1.5 µM |
| N#CC(c1ccc(Cl)cc1)c1c(Cl)cc(-n2ncc(=O)[nH]c2=O)cc1Cl (centres unmarked) [Diclazuril] |  |  |  |  |  |  |  |  |  |  |  |  |  |  |  | > 92 |  |  |  |  | CC50 at 24 h (in vitro): > 50 µM; Active in global cytotoxicity assays (%) [4]: 33.3%; active rate in Tox21 viability/cytotoxicity assays [4]: 33%; AC50 [5, 19]: 33 µM; AC50 [7, 20]: > 92 µM; cytotoxicity in GH3 viability assay (GH3-TRE-Luc cell line [10]): lacked cytotoxicity |
| Nc1nc(F)nc2c1ncn2[C@@H]1O[C@H](CO)[C@@H](O)[C@@H]1O [Fludarabine, reference compound] |  |  |  |  |  |  |  |  |  |  |  |  |  |  |  | 22.3 |  |  |  |  | Active in global cytotoxicity assays (%) [4]: 1.7%; AC50 [5, 19]: > 92 µM; AC50 [7, 20]: > 92 µM; AC50 [13]: 16.3 µM |
